The source of these data is paper PMC8476755 (Frontiers in Chemistry, 2021).

For the assay, the target named is T1, GAT1 (Homo sapiens, UniProt P30531).
T1 construct: expressed in transfected cells
In words: FLIPR membrane potential (FMP) assay, CHO cells stably expressing GAT1. In kind it is cell-based. Particulars: n = 2. The text has this:
In order to scrutinize the mode of inhibition of bicyclo-GABA and the N-methylated derivative 2, the ability to be translocated by BGT1 was investigated in the functional FMP assay able to discriminate between substrates and inhibitors, as previously described ([Al-Khawaja et al., 2014]).
The tsA201 cell line (a transformed HEK293 cell line), the Flp-In CHO cell lines stably expressing human (h) GATs and the HEK293 cell line stably expressing human α1β2γ2 GABAA receptors have been described previously and were cultured accordingly ([Al-Khawaja et al., 2014]; [Falk-Petersen et al., 2020]). […]
The FMP assay performed on human α1β2γ2 GABAA receptors in HEK293 cells was performed as described and data analyzed accordingly ([Falk-Petersen et al., 2020]). […] Test compound solutions were prepared at 4x concentration in assay buffer and added to ligand plates pre-heated at 37°C for 10–15 min in the FLEXstation3 plate reader (Molecular Devices). After incubation, 33.3 µL test compound solution (4x) was automatically transferred to each well in the cell plate and the signal was measured for 90 s by measuring emission at 560 nm caused by excitation at 530 nm. […] Data obtained in the FMP assay are given as relative changes in fluorescence units (ΔRFU) by subtracting the average of the baseline fluorescence signal from the peak fluorescence signal after compound addition. […]

T1 sequence (P30531 whole entry): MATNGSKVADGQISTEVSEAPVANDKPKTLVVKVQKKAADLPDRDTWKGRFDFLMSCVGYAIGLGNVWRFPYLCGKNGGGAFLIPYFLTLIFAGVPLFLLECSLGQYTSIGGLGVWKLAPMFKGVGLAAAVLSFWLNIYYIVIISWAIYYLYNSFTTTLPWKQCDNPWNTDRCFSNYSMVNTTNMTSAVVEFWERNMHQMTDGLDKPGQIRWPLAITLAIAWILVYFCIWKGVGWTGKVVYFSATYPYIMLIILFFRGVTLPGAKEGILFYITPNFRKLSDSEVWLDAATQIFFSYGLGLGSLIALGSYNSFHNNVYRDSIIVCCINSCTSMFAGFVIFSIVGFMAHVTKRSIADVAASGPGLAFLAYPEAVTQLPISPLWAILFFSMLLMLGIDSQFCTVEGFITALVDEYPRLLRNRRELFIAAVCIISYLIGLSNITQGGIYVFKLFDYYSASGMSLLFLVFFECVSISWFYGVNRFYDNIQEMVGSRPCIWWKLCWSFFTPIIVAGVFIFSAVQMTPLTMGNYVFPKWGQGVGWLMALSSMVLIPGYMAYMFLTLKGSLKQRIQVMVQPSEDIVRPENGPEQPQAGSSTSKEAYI

In the case of `N[C@@]12CC[C@H](C(=O)O)[C@@H]1C2` [bicyclo-GABA, (1S,2S,5R)-5-aminobicyclo[3.1.0]hexane-2-carboxylic acid], the “Inhibitory effect at GAT1” value (in the presence of GABA EC50 concentration (10 µM)) is “specific to BGT1”. Besides, the “Substrate activity at GAT1” value (tested as substrate, without GABA) is on record as “lack of activity”.
